Values joined by “and” are separate entries in the source; they are usually repeats but may differ in a detail not shown here. Identical values can stand only once. “Also recorded” adds a separate entry of the source. Like-named read-outs stand apart in the source and are kept apart here.
Legend:
MEGL/2ABD = molecular target: T1, MEGL/2ABD (Porphyromonas gingivalis, UniProt Q7MX71); type: biochemical; conditions: isotope assay, FIG. 13E
T1 construct: hexa-His tag with TEV protease site (N, cleaved yes); made in house; host or cells: E. coli BL21 (DE3)
T1 sequence (Q7MX71 7-399): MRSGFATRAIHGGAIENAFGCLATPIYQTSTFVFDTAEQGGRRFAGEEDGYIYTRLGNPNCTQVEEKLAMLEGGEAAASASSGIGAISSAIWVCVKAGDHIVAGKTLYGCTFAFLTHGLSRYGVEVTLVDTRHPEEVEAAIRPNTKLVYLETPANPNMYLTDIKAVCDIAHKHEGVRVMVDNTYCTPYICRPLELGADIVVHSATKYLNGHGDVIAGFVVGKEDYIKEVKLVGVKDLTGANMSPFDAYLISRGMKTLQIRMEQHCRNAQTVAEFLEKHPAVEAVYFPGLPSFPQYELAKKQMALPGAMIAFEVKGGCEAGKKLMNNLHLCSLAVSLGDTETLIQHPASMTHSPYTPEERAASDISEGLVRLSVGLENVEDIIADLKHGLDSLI
Protocol: Typically the overall reaction of α-ketobutyrate formation was performed in a total volume of 24 μl. The reaction contained 4 μl of reaction buffer [150 mM Tris-HCl (pH 8.0)], 4 μl of 1 mM pyridoxal phosphate (PLP), 3 μl of H2O, 6 μl of storage buffer, and 4 μl of diluted protein (0.4 μg), gently mixed and incubated at 37° C. for 5 minutes. The reaction was started by adding 1.93×10^5 cpm of 1-^14C-L-methionine (8814 cpm/nmol) and the contents were incubated at 37° C. for 15 minutes. The reaction was stopped by boiling for a minute, cooled on ice for 2 minutes and centrifuged at 3575 g for 7 minutes. A 2 μl aliquot was then chromatographed on a silica gel plate using 25% 20 mM phosphate buffer (pH 7.0) and 75% acetonitrile. Following chromatography, the TLC plates were dried, and exposed to x-ray film for 36-48 hours (Eastman-Kodak Co). The respective spots of substrate and products were cut out and radioactivity determined by liquid scintillation. […]

HEK-AD293T cells [1] = assay: Transfection with MEGL/2ABD construct, confocal microscopy, HEK-AD293T; type: cell-based; conditions: for effect of expressed MEGL/2ABD on HEK-AD293T cells: cell aggregation: 18 hours after transfection
From the text: (§1) The recombinant vector pMEGL-ET containing MEGL insert and pEGFP-C3 mammalian expression vector (Promega, Inc.) were digested with EcoR I and Bgl II restriction enzymes. The digested products were separated on 1% agarose to verify digestion and the MEGL insert was ligated into pEGFP-C3 vector. The ligated vector was then transformed into DH5α bacteria and the recombinant colonies were selected by kanamycin resistance. The plasmid from the recombinant colonies, were further tested for the insert by PCR using MEGL/2ABD specific primers. The recombinant bacteria, was then grown in bulk, plasmid isolated by maxi/mini preps using columns (Qiagen, Inc.). Purified plasmid was then used for mammalian transfection. HeLa, HEK-AD293T and BHK-21 cells (ATCC, Rockville, Md.) were grown in 75-cm^2 flasks in Dulbecco's modified Eagle's medium, supplemented with 10% fetal bovine serum 100 units/ml penicillin and 100 μg/ml streptomycin (Invitrogen Inc), in an atmosphere of 5% CO2, 95% air at 37° C. For confocal microscopy, cells were plated on cover slips in 35 mm^2 dishes. When cells reached 50-75% confluency they were placed in serum and antibiotic-free medium and co-transfected with plasmid DNA containing GFP and with or without MEGL/2ABD insert. […] Transfections of HEK-AD293T cells were performed using standard calcium phosphate methods. After incubation of cells for 4-18 hours, cells were washed with phosphate-buffered saline, fixed with 4% formaldehyde for 8 minutes, permeabilized using 0.2% Triton X-100 (Sigma-Aldrich) and mounted on glass slides using the ProLong Antifade Kit (Molecular Probes) for staining with DAPI using standard protocols. Samples were examined on a Zeiss LSM510 confocal microscope.
(§2) After 18 hour incubations cells were washed with phosphate-buffered saline, fixed, permeabilized and mounted on glass slides using the ProLong Antifade Kit (Molecular Probes) with DAPI staining as previously described by Enniga et al. 2006. Samples were examined on a Zeiss LSM510 confocal microscope.

MEGL = molecular target: T2, MEGL (Porphyromonas gingivalis, UniProt Q7MX71); type: biochemical
T2 construct: His tag (N, cleaved yes); made in house
T2 sequence (Q7MX71 7-399): as above
Protocol: This assay uses C^14-labeled methionine and recombinant, purified, HIS-TAG cleaved and further purified MEGL protein. The MEGL enzyme forms very specific radiolabeled nonvolatile C^14-labeled α-ketobutyrate. Further the products are separated by a silica gel-G thin layer chromatography (TLC) method using 75% acetonitrile and 25% 20 mM phosphate buffer (pH 7.0) solvent system.
Further characterization of the enzyme was made using these protocols.

HeLa cells = assay: Transfection with MEGL/2ABD construct, confocal microscopy (GFP, DAPI), HeLa; type: cell-based; conditions: for rescue of MEGL/2ABD-transfected HeLa cells from death: propargylglycine in culture medium (10 μM, 2 hours after transfection)
From the text: as §1, §2

BHK-21 cells [2] = assay: Transfection with MEGL/2ABD construct, confocal microscopy, BHK-21; type: cell-based; conditions: for effect of expressed MEGL/2ABD on BHK-21 cells: cell aggregation: 18 hours after transfection
From the text: as §1, §2

BHK-21 cells [3] = conditions: BHK-21, 18 hours after transfection
Protocol: (§3) The effect of MEGL on cell viability was determined using 3-[4,5-dimethylthiazol-2-yl]-2,5-diphenyl-tetrazolium bromide (MTT, Sigma-Aldrich). For MTT assay, cells were suspended at a concentration of ˜4×10^4 cells (180 μl/well). 20 μl of MTT solution (5 mg/ml) was added for each well and incubate at 37° C. and 5% CO2 for about 2-5 hours for purple color development. Formazan precipitates were dissolved in DMSO for 30 minutes at 37° C., and the absorbance was measured at 570 nm.
(§4) Viability of cells transfected with MEGL construct. Three different cell lines (Hela, BHK-21, and HEK-AD293T) were plated in 96-well plates and transfected with either vector expressing green fluorescent protein, GFP (pEGFP-C3), or MEGL and GFP (pEGFP-C3-MEGL). After 18 hours of transfection, cells were treated with MTT and viability was determined by measuring the MTT absorbance at λ570 nm. Control absorbance was arbitrarily determined as 100% viability.

HEK-AD293T cells [4] = conditions: 18 hours after transfection
Protocol: as §3, §4

[5] = Protocol: Typically the overall reaction of α-ketobutyrate formation was performed in a total volume of 24 μl. The reaction contained 4 μl of reaction buffer [150 mM Tris-HCl (pH 8.0)], 4 μl of 1 mM pyridoxal phosphate (PLP), 3 μl of H2O, 6 μl of storage buffer, and 4 μl of diluted protein (0.4 μg), gently mixed and incubated at 37° C. for 5 minutes. The reaction was started by adding 1.93×10^5 cpm of 1-^14C-L-methionine (8814 cpm/nmol) and the contents were incubated at 37° C. for 15 minutes. The reaction was stopped by boiling for a minute, cooled on ice for 2 minutes and centrifuged at 3575 g for 7 minutes. A 2 μl aliquot was then chromatographed on a silica gel plate using 25% 20 mM phosphate buffer (pH 7.0) and 75% acetonitrile. Following chromatography, the TLC plates were dried, and exposed to x-ray film for 36-48 hours (Eastman-Kodak Co). The respective spots of substrate and products were cut out and radioactivity determined by liquid scintillation.
The activity was measured using different amounts of protein ranging from 0.1 to 1 μg and the reaction was performed for 5-30 minutes.
Reaction at each protein concentration was performed for 15 minutes at pH 8.0 according to the standard assay procedures described. Effect of time was tested using 0.4 μg of protein. […]

[6] = propargylglycine in culture medium (10 μM, 2 hours after transfection)

## CSCC[C@@H](N)C(=O)O [D-methionine]
MEGL/2ABD
  relative MEGL/2ABD activity (L-methionine) in the presence of competing compound: 43.6%

## N[C@@H](CCSC[C@H](N)C(=O)O)C(=O)O [L-cystathionine]
MEGL/2ABD
  relative MEGL/2ABD activity (L-methionine) in the presence of competing compound: 54.6%

## N[C@@H](CS)C(=O)O [L-cysteine]
MEGL/2ABD
  relative MEGL/2ABD activity (L-methionine) in the presence of competing compound: 24.5% and 25.5%

## N[C@@H](CCOC(=O)CCC(=O)O)C(=O)O [o-succinyl-homoserine, O-succinyl L-homoserine]
MEGL/2ABD
  relative MEGL/2ABD activity (L-methionine) in the presence of competing compound: 45.6%

## C#CCC(N)C(=O)O (centres unmarked) [propargylglycine, reference compound]
HEK-AD293T cells [1]; [6]
  effect on cell aggregation of MEGL/2ABD-transfected HEK-AD293T cells: inhibited MEGL/2ABD mediated cell aggregation; also recorded: prevented cell aggregation; also recorded: inhibited the cell aggregation
MEGL
  effect of suicide inhibitor on MEGL activity: completely knocked out the MEGL activity
MEGL/2ABD
  relative MEGL/2ABD activity (L-methionine) in the presence of competing compound: 0.26%
HeLa cells
  rescue of MEGL/2ABD-transfected HeLa cells from death: restores cells from death; also recorded: restored viability
HeLa cells; listed as Propargylglycine
  rescue of MEGL/2ABD-transfected HeLa cells from death: restored cells from death
HeLa cells; listed as propargyl glycine
  rescue of MEGL/2ABD-transfected HeLa cells from death: restored nearly all cells from death
BHK-21 cells [2]; [6]
  effect on cell aggregation of MEGL/2ABD-transfected BHK-21 cells: inhibited MEGL/2ABD mediated cell aggregation; also recorded: prevented cell aggregation; also recorded: inhibited the cell aggregation

## C[Se]CC[C@H](N)C(=O)O [selenomethionine]
MEGL/2ABD
  relative MEGL/2ABD activity (L-methionine) in the presence of competing compound: 33.15%
MEGL/2ABD; listed as seleno-methionine
  relative MEGL/2ABD activity (L-methionine) in the presence of competing compound: 33.2%

## C[S+]([O-])CC[C@H](N)C(=O)O (some centres unmarked) [sulfoxymethionine, methionine-sulfoxide]
MEGL/2ABD
  relative MEGL/2ABD activity (L-methionine) in the presence of competing compound: 46.71%
MEGL/2ABD; listed as methionine-sulfoxide
  relative MEGL/2ABD activity (L-methionine) in the presence of competing compound: 46.7%

## methionine gamma lyase-2-aminobutyrate deaminase [MEGL-2ABD]
HEK-AD293T cells [1]
  effect of expressed MEGL/2ABD on HEK-AD293T cells: cell aggregation: severe cell aggregation
HEK-AD293T cells [1]; listed as MEGL
  effect of expressed MEGL/2ABD on HEK-AD293T cells: cell aggregation: very prominent cell aggregation
HEK-AD293T cells [1]; listed as MEGL/2ABD
  effect of expressed MEGL/2ABD on HEK-AD293T cells: cell aggregation: severe cell aggregation; also recorded: significant cell aggregation
MEGL
  optimal temperature: 37-55 °C
  pH optimum: 8.0
MEGL; oral pathology section
  Vmax: 0.57 μmol/min/mg protein
BHK-21 cells [3]; listed as MEGL
  cell death (words): no significant cell death
BHK-21 cells [3]; listed as MEGL/2ABD
  cell death (words): no cell death
HEK-AD293T cells [4]; listed as MEGL
  cell death (words): no significant cell death
HEK-AD293T cells [4]; listed as MEGL/2ABD
  cell death (words): no cell death
[5]; 72-93° C.
  overall α-ketobutyrate formation at temperatures 72-93° C.: very minimal
[5]; 15 minutes, pH 8.0, 0.4 μg protein
  temperature range of optimal activity: 37-55 °C
HeLa cells; 18 hours after transfection, listed as MEGL/2ABD
  effect of expressed MEGL/2ABD on HeLa cells: causes cell death; also recorded: significant cell death; also recorded: significant apoptosis
HeLa cells; within 18 hours of transfection, judged by confocal images
  HeLa cell death: 30%
BHK-21 cells [2]
  effect of expressed MEGL/2ABD on BHK-21 cells: cell aggregation: severe cell aggregation
BHK-21 cells [2]; listed as MEGL
  effect of expressed MEGL/2ABD on BHK-21 cells: cell aggregation: very prominent cell aggregation
BHK-21 cells [2]; listed as MEGL/2ABD
  effect of expressed MEGL/2ABD on BHK-21 cells: cell aggregation: severe cell aggregation; also recorded: significant cell aggregation

Source: patent US20120308548A1 (NOVA SOUTHEASTERN UNIVERSITY, priority 2010, published 2012)
